Experimental data as given in patent US9149462B2, “Pyrazole compounds acting against allergic, inflammatory and immune disorders” (Glaxo Group Limited, priority 2010, dated 2015).

Experiments:
Assay type in all cases: in vitro ADME
[1] = In vitro microsomal clearance, dog (Beagle)
[2] = In vitro microsomal clearance, rat (Wistar Han)
[3] = In vitro microsomal clearance, human
[4] = In vitro microsomal clearance, rat (CD)

Row | Clint [1] | Clint [2] | Clint [3] | Clint [4] | SMILES
1 | 0.98 mL/min g liver | 2.05 mL/min g liver | 0.80 mL/min g liver | 1.67 mL/min g liver | O=C(Nc1cnn(Cc2c(F)cccc2C(F)(F)F)c1)c1c(F)cccc1F [Example 6, 2,6-Difluoro-N-(1-{[2-fluoro-6-(trifluoromethyl)phenyl]methyl}-1H-pyrazol-4-yl)benzamide]
2 | 0.80 mL/min g liver | 1.16 mL/min g liver | <0.5 mL/min g liver | 0.95 mL/min g liver | [2H]C([2H])(c1c(F)cccc1C(F)(F)F)n1cc(NC(=O)c2c(F)cccc2F)cn1 [Example 29, 2,6-Difluoro-N-(1-(2-fluoro-6-(trifluoromethyl)-d2-benzyl)-1H-pyrazol-4-yl)benzamide]
